Paper PMC7146753, “Self-Assembly, Nematic Phase Formation, and Organocatalytic Behavior of a Proline-Functionalized Lipopeptide” (ACS Applied Materials & Interfaces, 2020)
Where a SMILES comes first, the peptide text is derived from it. The star is where a group is joined. Palmitoyl = CCCCCCCCCCCCCCCC(=O)*; NHhexadecyl = CCCCCCCCCCCCCCCCN*

Assays:
[1] = tested on: human breast cancer (MCF-7) cells; settings: 72 h
[2] = tested on: human dermal fibroblast (HDFa) cells; settings: 72 h

| IC50 [1] | Compound | IC50 [2] |
| --- | --- | --- |
| 230 µM | CCCCCCCCCCCCCCCCNC(=O)[C@@H](NC(=O)[C@H](CCCCN)NC(=O)[C@@H]1CCCN1C(=O)[C@H](CCC(=O)O)NC(=O)[C@H](C)NC(=O)[C@@H]1CCCN1)[C@@H](C)CC [PAEPKI-C16] (H-PAEPKI-NHhexadecyl) | 100 µM |
| 630 µM | CCCCCCCCCCCCCCCC(=O)N[C@H](C(=O)N[C@@H](CCCCN)C(=O)N1CCC[C@H]1C(=O)N[C@@H](CCC(=O)O)C(=O)N[C@@H](C)C(=O)N1CCC[C@H]1C(=O)O)[C@@H](C)CC [C16-IKPEAP] (Palmitoyl-IKPEAP-OH) | 390 µM |
